Like-named read-outs stand apart in the source and are kept apart here. Square brackets hold non-standard residues; d marks the D form. * marks the point of attachment. dPhe(4-Cl) = N[C@H](Cc1ccc(Cl)cc1)C(=O)O; Heptanoyl = CCCCCCC(=O)*; Bn = c1ccc(C*)cc1
Legend:
[1] = molecular target: T1, hMC3-R; assay: Competitive inhibition assay using [I125]-NDP-α-MSH, hMC3-R membranes; assay type: binding, human; conditions: read-out: Ki (nM) (NDP-α-MSH) MC3-R
T1 construct: expressed in transfected cells; host or cells: HEK-293
Protocol: (§1) Competitive inhibition assay using [1125]-NDP-α-MSH. A competitive inhibition binding assay was conducted using membranes prepared from HEK-293 cells transfected to express hMC3-R, hMC4-R or hMC5-R, and from B-16 mouse melanoma cells (containing MC1-R) using 0.2 to 0.4 nM [I^125]-NDP-α-MSH (New England Nuclear) in 50 mM HEPES buffer containing 1 mM MgCl2, 2 mM CaCl2, and 5 mM KCl, at pH 7.2. In certain experiments, HEK-293 cells transfected to express hMC1-R were also employed. The assay tube also contained a chosen concentration of the test compound of this invention, typically a 1 μM concentration, for determining inhibition of the binding of [^1125]-NDP-α-MSH to its receptor. Non-specific binding was measured by inhibition of binding of [I^125]-NDP-α-MSH in the assay with the presence of 1 μM α-MSH.
(§2) The assay mixture was incubated for 90 minutes at room temperature, then filtered and the membranes washed three times with ice cold buffer. The filter was dried and counted in a gamma counter for remaining radioactivity bound to the membranes. 100% specific binding was defined as the difference in radioactivity (cpm) bound to cell membranes in the absence and presence of 1 μM α-MSH. The cpm obtained in presence of test compounds were normalized with respect to 100% specific binding to determine the percent inhibition of [125]-NDP-α-MSH binding. Each assay was conducted in triplicate and the actual mean values are described, with results less than 0% reported as 0%.

[2] = test system: T2, hMC4-R; assay: cAMP functional assay in HEK-293 cells expressing MC4-R (agonist, neutral antagonist/Schild); assay type: cell-based, human; conditions: for intrinsic activity at MC4-R: NDP-α-MSH maximal stimulation = 1.0
T2 construct: expressed in transfected cells; host or cells: HEK-293
Protocol: General method for EC50 determination in functional activity assay. Functional evaluation of compounds at melanocortin receptors was performed by measuring the accumulation of intracellular cAMP in HEK-293 cells expressing hMC3-R, hMC4-R or hMC5-R, and in B-16 mouse melanoma cells expressing MC1-R. Cells suspended in Earle's Balanced Salt Solution containing 10 mM HEPES (pH 7.5), 5 mM MgCl2, 1 mM glutamine, 0.1% albumin and 0.6 mM 3-isobutyl-1-methyl-xanthine, a phosphodiesterase inhibitor, were plated in 96 well plates at a density of 0.5×10^5 cells per well. Cells were incubated with the test compounds in the presence or absence of α-MSH for 1 hour at 37° C. cAMP levels in the cell lysates were measured using an EIA kit (Amersham). Data analysis and EC50 values were determined using nonlinear regression analysis with Prism Graph-Pad software.
Functional status. The agonist/antagonist status with respect to MC1-R, MC-3R, MC4-R and MC5-R of certain compounds of the invention was determined.
Assay for agonist. Evaluation of the molecules to elicit a functional response in HEK-293 cells expressing MC4-R was accomplished by measuring the accumulation of intracellular cAMP following treatment. Confluent HEK-293 cells expressing MC4-R were detached by enzyme free cell suspension buffer. Cells were suspended in Earle's Balanced Salt Solution containing 10 mM HEPES (pH 7.5), 1 mM MgCl2, 1 mM glutamine, 0.5% albumin and 0.3 mM 3-isobutyl-1-methyl-xanthine (IBMX), a phosphodiesterase inhibitor. The cells were plated in 96 well plates at a density of 0.5×10^5 cells per well and pre-incubated for 30 minutes. The cells were then challenged with the test compounds dissolved in DMSO at a concentration range of 0.05-5000 nM in a total assay volume of 200 μL for 1 hour at 37° C. The concentration of DMSO was always held at 1% in the assay mixture. NDP-α-MSH was used as the reference agonist. At the end of the incubation period the cells were disrupted by the addition of 50 μL of lysis buffer from a cAMP EIA kit (Amersham). Complete rupture of the cells was obtained by pipetting the cells multiple times. cAMP levels in the cell lysates were measured after appropriate dilution using the EIA kit (Amersham) method. Data analysis and EC50 values were determined by using nonlinear regression analysis with Prism Graph-Pad software. […] FIG. 1 illustrates typical results, showing the stimulation of cAMP using the compound of Example 11 in HEK-293/MC4-R cells with comparison to NDP-α-MSH.
Assay for Neutral Antagonist. Compounds with a high affinity for binding to MC4-R membranes but with less potency in terms of cAMP accumulation (EC50>1000 nM) and low response ratio (<0.1) were analyzed for their ability to antagonize the stimulatory effect of the agonist NDP-α-MSH. These studies were carried out in HEK-293 cells expressing MC4-R. Cells were incubated with the compounds in the presence of the agonist NDP-α-MSH and the extent of antagonism was measured by the decrease in intracellular cAMP concentrations. Screening the compounds for antagonist activity was performed at a single concentration of NDP-α-MSH (1.0 nM) over a compound concentration range of 0.5-5000 nM.
Experimental details were similar to the analysis for agonistic activity described above. Briefly, cells were pre-incubated for 30 minutes with the test compounds at concentrations between 0.5 nM and 5000 nM. The cells were then stimulated with NDP-α-MSH at a concentration of 1 nM for 1 hour. For Schild's analysis, the interactions were studied using at least 3 concentrations of the compounds, separated by a log unit, over a full range of the agonist (0.005-5000 nM). cAMP levels were measured in the cell lysates after appropriate dilution. Nonlinear regression analysis with Prism Graph-Pad software was used for Schild analysis and to obtain EC50 values. pA2 values were derived from the Schild plot of the data.

[3] = molecular target: T3, hMC5-R; assay: Competitive inhibition assay using [I125]-NDP-α-MSH, hMC5-R membranes; assay type: binding, human; conditions: read-out: Ki (nM) (NDP-α-MSH) MC5-R
T3 construct: expressed in transfected cells; host or cells: HEK-293
Protocol: as §1, §2

[4] = molecular target: T2, hMC4-R; assay: Competitive inhibition assay using [I125]-NDP-α-MSH, hMC4-R membranes; assay type: binding, human; conditions: for attenuation of binding of α-MSH and AgRP to MC4-R: both ligands (NDP-α-MSH and AgRP), summary
Protocol: as §1, §2

[5] = test system: T2, hMC4-R; assay type: binding, human; conditions: for Inhibition at 1 μM (AgRP) MC4-R: 1 μM compound
Protocol: Competitive binding assay using [I^125]-AgRP (83-132). Competitive binding studies using [I^125]-AgRP (83-132) were carried out on membranes isolated from cells expressing hMC4-R. The assay was performed in 96 well GF/B Millipore multiscreen filtration plates (MAFB NOB10) pre-coated with 0.5% bovine serum albumin (Fraction V). The assay mixture contained 25 mM HEPES buffer (pH 7.5) with 100 mM NaCl, 2 mM CaCl2, 2 mM MgCl2, 0.3 mM 1,10-phenanthroline, 0.5% bovine serum albumin, cell membranes, radioligand [I^125]-AgRP (83-132) (NEN), and increasing concentrations of compounds in a total volume of 200 μL. Binding was measured at radioligand concentrations of 0.2 nM. After incubating for 1 hour at 37° C., the reaction mixture was filtered and washed with an assay buffer containing 500 mM NaCl. The dried discs were punched out from the plate and counted on a gamma counter. Care was taken to limit the specific binding of the ligand to an amount not exceeding 10% of the counts added to the reaction mixture. Data were analyzed using the Prism Graph-Pad curve fitting software.

[6] = molecular target: T4, MC1-R; assay: Competitive inhibition assay using [I125]-NDP-α-MSH, MC1-R membranes; assay type: binding, mouse; conditions: for Inhibition at 1 μM (NDP-α-MSH) MC1-R: 1 μM compound
T4 construct: other: 1 μM compound
Protocol: as §1, §2

[7] = cAMP assay, read-out: EC50 (nM) at MC4-R
[8] = MC4-R membranes, Table 1, read-out: Ki (nM) I125-NPD-α-MSH
[9] = read-out: Ki (nM) (NDP-α-MSH) MC4-R
[10] = MC4-R membranes, Table 1, read-out: Ki (nM) I125-AgRP

Row | Molecule | Ki [1] [nM] | functional status (pAg, Ag, Antag, Inactive) ([2]; MC4-R, Table 1) | EC50 ([2]; MC4-R, Table 1, read-out: EC50) [nM] | intrinsic activity at MC4-R [2] | EC50 [2, 7] [nM] | Ki [3] [nM] | Ki [4, 8] [nM] | attenuation of binding of α-MSH and AgRP to MC4-R [4] | Ki [4, 9] [nM] | Inhibition at 1 μM (AgRP) MC4-R [5] [%] | Ki [5, 10] [nM] | Ki ([5]; read-out: Ki (nM) (AgRP) MC4-R) | Ki [6] [nM] | Inhibition at 1 μM (NDP-α-MSH) MC1-R [6] [%] | pA2 (M) ([2]; MC4-R antagonists, Table 1) | pA2 value at MC4-R ([2]; Schild plot vs NDP-α-MSH) | functional status at MC4-R ([2]; cAMP assay, mostly at 1 μM) | EC50 ([2]; MC4-R, Table 1 in μM, read-out: EC50) [nM]
1 | 7′-amino-heptanoyl-Ser(Bzl)-D-Phe(4-Cl)-Arg-S-(−)-1-(1-naphthyl)ethylamide [Example 17] | 125 | pAg (“pAg” means partial agonist) | 17 | 0.3 | 17 | 313 | 7 | attenuate the binding of both α-MSH and AgRP to MC4-R | 7 | 100 | 0.6 | 0.6 | – | – | – | – | – | –
2 | N=C(N)NCCC[C@H]1CN(CCc2ccc3ccccc3c2)CCN1C(=O)[C@H](N)Cc1ccc(Cl)cc1Cl [Example 18, N-{3-[(S)-1%-[(R)-2-Amino-3-(2,4-dichloro-phenyl)-propionyl]-4-(2-naphthalen-2-ylethyl)-piperazin-2-yl]-propyl}-guanidine] | 97 | pAg (“pAg” means partial agonist) | 22 | 0.4 | 22 | 259 | 3 | attenuate the binding of both α-MSH and AgRP to MC4-R | 3 | 100 | 1 | 1 | 1200 | 6 | – | – | – | –
3 | N=C(N)NCCC[C@H]1C(=O)N2C(CC[C@@H]2COc2ccc3ccccc3c2)N1C(=O)[C@@H](Cc1ccc(Cl)cc1Cl)NC(=O)[C@@H]1Cc2ccccc2CN1 (stereo partly drawn) [Example 23, (S)-1,2,3,4-Tetrahydro-isoquinoline-3-carboxylic acid {(R)-1-(2,4-dichloro-benzyl)-2-[(2S,5R)-2-(3-guanidino-propyl)-5-(naphthalen-2-yloxymethyl)-3-oxo-hexahydro-pyrrolo[1,2-a]imidazol-1-yl]-2-oxo-ethyl}-amide] | 42 | Antag (“Antag” means antagonist) | – | – | – | 26 | 1 | – | 1 | 100 | 1.2 | 1.2 | – | – | 8.086 | 8.0 | antagonist | –
4 | Heptanoyl-T(Bn)[dPhe(4-Cl)]RW-NH2 [Example 24] | 374 | pAg (“pAg” means partial agonist) | – | 0.4 | > 1000 | 292 | 21 | attenuate the binding of both α-MSH and AgRP to MC4-R | 21 | 90 | 69 | 69 | – | – | – | – | – | > 1000
5 | NH2—(CH2)6—C(═O)-Ser(Bzl)-D-Phe(4-Cl)-Arg-Trp-Asp-Phe-NH2 [Example 15] | 76 | pAg (“pAg” means partial agonist) | 283 | 0.5 | 238 | 405 | 5 | attenuate the binding of both α-MSH and AgRP to MC4-R | 5 | 95 | 0.6 | 0.6 | 242 | 38 | – | – | – | –
6 | NH2—(CH2)6—C(═O)-Ser(Bzl)-D-Phe(4-Cl)-Arg-Trp-NH2 [Example 1] | 27 | pAg (“pAg” means partial agonist) | 296 | 0.3 | 296 | 208 | – | attenuate the binding of both α-MSH and AgRP to MC4-R | 1 | – | – | 8 | 351 | 33 | – | – | – | –

Source: patent US20090076029A1 (Palatin Technologies, Inc., priority 2007, published 2009)
